Measured values as given in PubChem BioAssay AID743494 (The Scripps Research Institute Molecular Screening Center, 2014).
Active and inactive are the calls of the source. The rule behind the calls is not given here.

Tested on: Ga16 counterscreen cells, calcium fluorescence antagonism
Test: Ga16 cell calcium inhibition, analog series – fluorescence, dose response, MedChem round 1, counter-screen for TAAR1 agonist project, SAR follow-up (AID 743494)

SMILES	IC50
O=C(CCN1CCC(O)(c2ccccc2)C1)c1ccc2c(c1)OCCO2 (stereo unspecified)	> 29.9 µM (inactive)
NC(=O)CCN1C[C@H](c2ccccc2)[C@@H]2[C@H]1C1CCN2CC1	> 29.9 µM (inactive)
O=C(CCN1C[C@@H](C(=O)O)[C@H](c2ccccc2)C1)NC1CCCC1	> 29.9 µM (inactive)
O=C(CCN1C[C@@H](C(=O)O)[C@H](c2ccccc2)C1)NCc1cccs1	> 29.9 µM (inactive)
O=C(CCN1C[C@@H](C(=O)O)[C@H](c2cccc(F)c2)C1)NC1CC1	> 29.9 µM (inactive)
CC(CN1CCC(c2ccccc2)C1)C(=O)c1ccc2c(c1)OCCO2 (stereo unspecified)	> 29.9 µM (inactive)
O=C(CCN1CCC(c2ccccc2)C1)c1ccccc1 (stereo unspecified)	> 29.9 µM (inactive)
CC1CN(CCC(=O)c2ccc3c(c2)OCCO3)CC1c1ccccc1 (stereo unspecified)	> 29.9 µM (inactive)
O=C(CCN1CCC(O)(c2ccc(F)cc2)C1)c1ccc2c(c1)OCCO2 (stereo unspecified)	> 29.9 µM (inactive)
CC(CN1CCCC1Cc1ccccc1)C(=O)c1ccc2c(c1)OCCO2 (stereo unspecified)	> 29.9 µM (inactive)
Cc1ccc(C(=O)CCN2CCC(c3ccccc3)C2)cc1 (stereo unspecified)	> 29.9 µM (inactive)
